# Assays:
# [1] = molecular target: Apoptosis regulator Bcl-2 (Homo sapiens, UniProt P10415); test: (§1) BCL-2 TR-FRET Assay: The following assay concentrations and times were used: 3 ng BCL-2, 5 μl of 1:100 anti-His Tb-labeled donor, 5 μl of 1:100 Dye-labeled acceptor, 5 μl of 1:40 BCL-2 Peptide Ligand, and 2 ul of test compound, with 60 min incubation time. The results of the assay were read using a Clariostar (BMG Labtech) plate reader with the following parameters: TR FRET, 340ex/620 and 665em; 60 μsec Delay; and 500 μsec integration.
# Chain of Apoptosis regulator Bcl-2 (P10415 whole entry): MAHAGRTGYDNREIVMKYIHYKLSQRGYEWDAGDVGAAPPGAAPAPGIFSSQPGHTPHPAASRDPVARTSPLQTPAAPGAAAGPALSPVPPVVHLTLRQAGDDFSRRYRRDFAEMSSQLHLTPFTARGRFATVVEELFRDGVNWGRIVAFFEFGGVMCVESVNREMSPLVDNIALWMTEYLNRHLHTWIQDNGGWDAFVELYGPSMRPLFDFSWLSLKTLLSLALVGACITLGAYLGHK
# Bcl-2-like protein 1 = Bcl-2-like protein 1 (Homo sapiens, UniProt Q07817); test: as §1, with “BCL-XL TR-FRET” for “BCL-2 TR-FRET”, “used: 10.5” for “used: 3”, “ng BCL-XL,” for “ng BCL-2,”, “of 1:80 BCL-XL” for “of 1:40 BCL-2”, “2 μl” for “2 ul”
# Chain of Bcl-2-like protein 1 (Q07817 whole entry): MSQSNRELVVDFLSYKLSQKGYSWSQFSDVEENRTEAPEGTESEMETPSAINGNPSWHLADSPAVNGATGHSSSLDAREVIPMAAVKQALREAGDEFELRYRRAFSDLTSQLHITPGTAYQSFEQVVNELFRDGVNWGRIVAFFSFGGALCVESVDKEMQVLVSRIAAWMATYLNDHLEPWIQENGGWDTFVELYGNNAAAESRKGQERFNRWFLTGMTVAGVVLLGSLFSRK
Compound,IC50 [1] [µM],IC50 (Bcl-2-like protein 1) [µM]
O=C(c1cc(-c2cc3c(cc2C(=O)N2Cc4ccccc4C[C@H]2CN2CCOCC2)OCO3)n2c1CCCC2)N(Cc1ccccc1F)c1ccc(O)cc1,< 0.005,< 2
O=C(c1cc(-c2cc3c(cc2C(=O)N2Cc4ccccc4C[C@H]2CN2CCOCC2)OCO3)n2c1CCCC2)N(Cc1ccc(F)cc1)c1ccc(O)cc1,–,> 4

# — ChEMBL document CHEMBL5729797, “Compounds having tetrahydroindolizine-1-carboxamide as BCL-2 inhibitors” (2023)
